# Assay results as given in US20240139178A1, “METHOD FOR MANUFACTURING COMPOSITION FOR COMPOSITION FOR INCREASING COGNITIVE FUNCTION” (priority 2018, published 2024).
# Experiments:
# Aβ1-42 [1] = target: T1, Aβ1-42 (Homo sapiens, UniProt P05067); assay: Aβ aggregation inhibition test (Thioflavin T analysis); format: biochemical; details: for Aβ aggregation degree compared to the control / amyloid aggregation inhibition effect compared to the control: 2 μM compound, Aβ1-42 50 μM; for Aβ aggregation degree compared to the control: 37° C. 72 hours, control = 100%; for amyloid aggregation inhibition effect compared to the control: 72 hours; for Aggregation (%): 20 μM compound, 50 μM Aβ, 3 days, relative to control (100%)
# T1 construct: human A81-42 monomers (UniProtKB-P05067, a.a. 672-713)
# Procedure: Then, the compound was used diluted by using 6% DMSO (in DW) and used.
# Triflupromazine hydrochloride (triflupromazine used in all the examples below is triflupromazine hydrochloride) was dissolved to a concentration of 5 mM in DMSO. The compound was then used diluted with 6% DMSO (in DW).
# The Aβ solution was prepared by dissolving human A81-42 monomers (UniProtKB-P05067, a.a. 672-713) to 10 mM concentration in DMSO. Thereafter, the mixture was diluted to 100 uM by using DW and stored on ice.
# On the other hand, Thioflavin-T (Sigma-Aldrich) was dissolved to the concentration of 5 mM in 50 mM glycine buffer (pH 8.5). Then, the resultant solution was diluted to the concentration of 50 μM by using 50 mM glycine buffer (pH 8.5) and stored in the dark while light was blocked.
# (§1) 25 μL of the reaction solution in which the reaction was completed was added to each well of a 96-well fluorescence assay plate, and 75 μL of the Thioflavin-T solution prepared above was added to each well. After reacting for 5 minutes in the dark at room temperature, fluorescence values were measured at excitation 450 nm and emission 485 nm by using a multi-mode microplate reader.
# The fluorescence value of the group (control) treated with Aβ alone and aggregated for 72 hours was considered as 100%, and the measured fluorescence values were expressed as a relative value thereto, and results thereof are shown in FIG. 1 and FIG. 2.
# In addition, by performing the same test as described above for 20 μM of various compounds using 50 μM Aβ, the degree of Aβ aggregation was measured, and the result is expressed as a relative value for control (100%).
# Aβ1-42 [2] = target: T1, Aβ1-42; assay: Aβ disaggregation test by Thioflavin T analysis; format: biochemical; details: for amyloid disaggregation effect: Aβ1-42 25 μM; for degree of Aβ aggregation compared to the control: Aβ1-42 25 μM pre-aggregated 72 hours, then 72 hours
# Procedure: (§2) The compound was then used diluted with 6% DMSO (in DW).
# Triflupromazine hydrochloride was dissolved to the concentration of 5 mM in DMSO. The compound was then used diluted with 6% DMSO (in DW).
# (§3) The Aβ solution was prepared by dissolving Aβ 1-42 monomers to the concentration of 10 mM in DMSO. Thereafter, the mixture was diluted to 100 μM by using DW and stored on ice.
# (§4) On the other hand, Thioflavin-T was dissolved to the concentration of 5 mM in 50 mM glycine buffer (pH 8.5). Then, the resultant solution was diluted to the concentration of 50 μM by using 50 mM glycine buffer (pH 8.5) and stored in the dark while light was blocked.
# The Aβ solution prepared in Example 2.1. was placed in 1.5 mL microcentrifuge tubes, each having 25 μM of the Aβ solution, and then reacted at 37° C. for 72 hours.
# as §1
# The fluorescence value of the group (control) treated with Aβ alone and aggregated for 72 hours was considered as 100%, and the measured fluorescence values were expressed as a relative value thereto, and results thereof are shown in FIG. 3 and FIG. 4.
# Aβ42 = target: T2, Aβ42 (Homo sapiens, UniProt P05067); assay: Aβ disaggregation test by SDS-PAGE analysis (PICUP); format: biochemical; details: 25 μM Aβ aggregated 3 days, 50 μM or 500 μM compound, further 3 days
# T2 construct: human A81-42 monomers (UniProtKB-P05067, a.a. 672-713)
# Procedure: In order to confirm Aβ disaggregation in the sample prepared in Example 2.1, SDS-PAGE analysis was performed as follows.
# In detail, the stock of ammonium persulfate (APS; 200 mM)and tris (2,2′-bipyridyl)dichlororuthenium (II) hexahydrate (Ru; 10 mM) was prepared in an amber tube (Axygen, MCT-150-X) by using a photo-induced cross-linking of unmodified proteins (PICUP) buffer (0.1 M sodium phosphate (pH 7.4)). The stock was diluted 10-fold in PICUP buffer (APS: 20 mM/Ru: 1 mM). 10 μL of each sample prepared in Example 2.1 was dispensed at the bottom of a 0.5 mL tube (Axygen, PCR-05-C). 1 μL of APS (20 mM) was dispensed on the tube wall and 1 μL of Ru (1 mM) on the tube cap. At this time, in order to prevent the reaction from proceeding, the sample was not mixed with APS and Ru. After closing the tube cap and spin down using a centrifuge, the tube was removed from the centrifuge and exposed to light 3 times per second using an incandescent lamp. 3 μL of 5× reducing sample buffer (w/5% β-mercaptoethanol) was added to each tube. Samples were heated at 95-100° C. for 5 minutes and then cooled on ice.
# Then, the PICUP-treated samples were loaded on 4-20% (w/v) tris/glycine gel and electrophoresed at 100V for 1 hour and 30 minutes. After electrophoresis, the gel was separated and confirmed by silver staining.
# Aβ1-42 [3] = target: T1, Aβ1-42; assay: Aβ disaggregation test of rifamycin-based derivatives by Thioflavin T analysis; format: biochemical; details: 50 μM compound, 50 μM Aβ1-42 aggregated 3 days, then 2 days of reaction
# Procedure: as §2, §3, §4
# The Aβ solution prepared in Example 3.1. was placed in 1.5 mL microcentrifuge tubes, each having 50 μM of the Aβ solution, and then reacted at 37° C. for 72 hours.
# Each 1.5 mL microcentrifuge tube was treated with 50 μM rifapentine-based derivatives, followed by reaction at 37° C. for 48 hours.
# as §1
# The fluorescence value of the group (control) treated with Aβ alone and aggregated for 72 hours by treating only Aβ was considered as 100%, and the measured fluorescence values were expressed as a relative value thereto, and results thereof are shown in FIG. 7.
# APP/PS1 TG mice = assay: Y-maze test; format: in vivo; details: 8th week after oral administration; compared to TG-Veh and WT-Veh
# Text: (§5) Transgenic mice (APP/PS1 TG; Alzheimer' disease animal model; B6C3-Tg(APPswe, PSEN1dE)85Dbo/Mmjax) and wild type mice were derived from Jackson Laboratory (Bar Harbor, Maine, USA). APP/PS1 TG mice crossed with wild-type mice and maintained as double hemizygotes. All genotypes were confirmed by PCR analysis using tail DNA according to the standard PCR conditions of the Jackson Laboratory. Each mouse was housed in a plastic cage in the animal cage and the temperature of the plastic cage was maintained at 21±1° C. in alternating 12 hour light cycle, and the mice were freely fed with food and water.
# The control group received the same amount of vehicle (0.5% MC in DW).
# Y-maze test was performed using a maze structure made by placing the same three arms 40 cm in length (15 cm in height of the wall) at an angle of 120 degrees. […] The search time was 8 minutes per subject, and the final result was expressed as a spontaneous alteration (%) value. Spontaneous alteration (%) value was calculated by the following formula. […]
# Behavioral patterns were analyzed using SMART VIDEO TRACKING Software (Panlab, USA). All data obtained in the experiments were expressed as mean±standard error mean (SEM), and the drug-applied group was compared with the non-drug group, which was a control, by using student's t-test.
# 5× FAD mice = assay: Amyloid plaque reduction by oral triflupromazine, Thioflavin S staining; format: in vivo; details: oral 50 mg/kg once every two days for 3 weeks; vs vehicle control mice
# Text: as §5, with “(5×FAD; Alzheimer's” for “(APP/PS1 TG; Alzheimer'”, “B6SJL-Tg (APPSwFILon, PSEN1*M146L*L286V)6799Vas/Mmjax))” for “B6C3-Tg(APPswe, PSEN1dE)85Dbo/Mmjax)”, “wild-type” for “wild type”, “obtained” for “derived”, “5× FAD” for “APP/PS1 TG”, “Four to six mice were” for “Each mouse was”
# (§6) Seven-month old 5× FAD mice were orally treated with 50 mg/kg of triflupromazine once every two days for 3 weeks. The control received the same amount of vehicle (1% (w/v) DMSO in PBS).
# Mice were anesthetized using 2%(w/v) avertin (20 mg/g, i.p.). The mice were perfused with 0.9%(w/v) NaCl and brains thereof were excised. […] The lysate concentration was measured using the BCA protein assay kit (thermoFisher, cat #232250) according to the manufacturer's instructions. The absorbance was read at 560 nm.
# To stain frozen brain with thioflavin S (ThS), the brain was cut to 35 um thickness to create tissue sections using cryostat (Leica CM1800) and then Aβ plaques were stained. […] Images were obtained using a Leica DM2500 fluorescence microscope.
# [4] = system: Total Tau (T-Tau) and phosphorylated Tau (P-Tau); assay: Western blot of total and phosphorylated Tau in brain tissue after oral triflupromazine; format: in vivo, mice
# Text: as §5, with “(5×FAD; Alzheimer's” for “(APP/PS1 TG; Alzheimer'”, “B6SJL-Tg (APPSwFILon, PSEN1*M146L*L286V)6799Vas/Mmjax))” for “B6C3-Tg(APPswe, PSEN1dE)85Dbo/Mmjax)”, “wild-type” for “wild type”, “obtained” for “derived”, “5× FAD” for “APP/PS1 TG”, “Four to six mice were” for “Each mouse was”
# as §6
# Mice were anesthetized using 2%(w/v) avertin (20 mg/g, i.p.). The mice were perfused with 0.9%(w/v) NaCl and brains thereof were excised. The hemibrains were fixed overnight at 4° C. in 4° /0(w/v) paraformaldehyde (pH 7.4). For cryopreservation, brains were soaked in 30%(w/v) sucrose for 48 hours. The other hemibrains were dissected into cortical and hippocampal regions and homogenized on ice for 30 minutes in lysis buffer (10 mM Tris-HCl, 5 mM EDTA in 320 mM sucrose, pH 7.4) containing 1× protease inhibitor cocktail. The sample was centrifuged at 13500 rpm for 30 minutes at 4° C. The lysate concentration was measured using the BCA protein assay kit (thermoFisher, cat #232250) according to the manufacturer's instructions. The absorbance was read at 560 nm.
# Changes in Tau, a major cause of Alzheimer's dementia and Parkinson's disease, together with Aβ plaques, were confirmed by Western blot analysis. Samples of the prepared tissues were separated by SDS-PAGE and transferred to PVDF membrane. The membrane was treated overnight at 4° C. using the primary antibody. As the primary antibody, antibodies capable of detecting Total Tau (T-Tau) and phosphorylated Tau (P-Tau) were used, and detection was performed using a secondary antibody conjugated with horseradical peroxidase (HRP). The blot development was performed with a Clarity Western ECL substrate (Bio-Rad) according to the manufacturer's instructions.
# On the other hand, in wild type mice (Wt), a decrease in total Tau (T-Tau) and phosphorylated Tau (P-Tau) was not observed.
# [5] = 5× FAD (Tg) mice, cortex and hippocampus tissue, oral 50 mg/kg once every two days for 3 weeks, vs Tg veh
# T1 sequence (P05067 672-713): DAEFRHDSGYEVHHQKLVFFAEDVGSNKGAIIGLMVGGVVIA
# T2 sequence (P05067 672-713): as above
Aβ disaggregation effect compared to the control (Aβ1-42 [3]) [%],degree of Aβ aggregation compared to the control (Aβ1-42 [3]) [%],Structure (SMILES),Aβ aggregation degree compared to the control (Aβ1-42 [1]) [%],amyloid aggregation inhibition effect compared to the control (Aβ1-42 [1]) [%],Aggregation (%) (Aβ1-42 [1]),amyloid disaggregation effect (Aβ1-42 [2]; 50 μM compound) [%],degree of Aβ aggregation compared to the control (Aβ1-42 [2]; 50 μM compound) [%],amyloid disaggregation effect (Aβ1-42 [2]; 500 μM compound) [%],degree of Aβ aggregation compared to the control (Aβ1-42 [2]; 500 μM compound) [%],Aβ disaggregation (bands of aggregated Aβ fibrils and dimers) (Aβ42),spontaneous alteration (%) (APP/PS1 TG mice),number of plaques (5× FAD mice),total areas of plaques (5× FAD mice),"P-Tau (phosphorylated Tau) [4, 5]","T-Tau (Total Tau) [4, 5]",decrease in phosphorylated Tau (P-Tau) ([4]; wild type mice (Wt)),decrease in total Tau (T-Tau) ([4]; wild type mice (Wt))
≥ 90,≤ 10,"CO[C@H]1/C=C/O[C@@]2(C)Oc3c(C)c(O)c4c(O)c(c(/C=N/N5CCN(C6CCCC6)CC5)c(O)c4c3C2=O)NC(=O)/C(C)=C\C=C\[C@H](C)[C@H](O)[C@@H](C)[C@@H](O)[C@@H](C)[C@H](OC(C)=O)[C@@H]1C [rifapentine, 3-[[(4-cyclopentyl-1-piperazinyl)imino]methyl]-rifamycin]",≤ 40,≥ 60,13.35,≥ 90,≤ 10,≥ 99,≤ 1,concentration-dependent Aβ disaggregation activity,increased closer to the positive control group (WT-Veh),–,–,–,–,–,–
–,–,"CN(C)CCCN1c2ccccc2Sc2ccc(C(F)(F)F)cc21 [triflupromazine, dimethyl ({3-[2-(trifluoromethyl)-10H-phenothiazin-10-yl]propyl})amine]",≤ 70,≥ 30,49.84,≥ 35,≤ 65,≥ 75,≤ 25,concentration-dependent Aβ disaggregation activity,–,reduced,reduced,decreased,decreased,not observed,not observed
